Values joined by “and” are separate entries in the source; they are usually repeats but may differ in a detail not shown here. Equal values may be shown once.
What was measured:
[1] = test system: primary KIR2DL3+ NK cells; test: Primary NK cell degranulation (CD107a) against peptide-pulsed 721.221-ICP47-C*03:04 cells, KIR2DL3+ subset; assay type: cell-based, human; conditions: for KIR2DL3+ NK Cell Activity (Mean ± SEM): ratio of percent CD107a+ KIR2DL3+ NK cells with variant peptide to that with wild-type peptide; for Relative degranulation of KIR2DL3+ NK cells (CD107a): % CD107a+ NK cells divided by % with GKL control peptide, effector:target 1:5, 6 h at 26°C, mean ± SEM, nine donors
Description: (§1) To determine activation of primary NK cells following exposure to target cells pulsed with different peptide variants, NK cell degranulation assays measuring CD107a expression were performed using freshly isolated and purified NK cells from nine healthy KIR2DL3+ individuals. Primary NK cells were isolated by incubating whole blood with RosetteSep Human NK Cell Enrichment Cocktail (Stemcell Technologies) for 20 min at room temperature, followed by Histopaque-1077 (Sigma) density gradient centrifugation. NK cells were rested overnight in RPMI medium 1640 (Sigma-Aldrich) supplemented with 10% heat-inactivated fetal calf serum (Sigma-Aldrich), 2,500 U/ml penicillin, 2,500 μg/ml streptomycin, […] L-glutamine (Cellgro), and 1.0 ng/ml IL-15 (Cellgro). Subsequently, NK cells (1 × 10^5) were co-incubated with peptide-pulsed 721.221-ICP47-C*03:04 cells (5 × 10^5) at an effector:target ratio of 1:5 in RPMI containing anti-human CD107a-PE-Cy7 (12.5 μl/ml) and monensin (1.5 μl/ml, BD GolgiStop). Cells were incubated for 6 h at 26°C in 5% CO2. Cells were stained with 7AAD, anti-CD3-PB, anti-CD16-BV785, anti-CD56-BV605, anti-CD14/19-BV510, anti-KIR2DL2/3-PE, and anti-KIR2DL3-APC, washed, fixed with 4% (w/v in PBS) paraformaldehyde (Affymetrix), and analyzed by multiparameter flow cytometry using a BD LSR II.
Flow cytometry data were analyzed using FlowJo software version 10.0.6 (Tree Star), and statistical analysis was performed using GraphPad Prism 6 (GraphPad Software). HLA stabilization values are shown as mean relative fluorescence intensity; error bars represent standard deviation (SD). Relative fluorescence intensity was calculated by dividing the geometric mean fluorescence intensity (gMFI) of HLA expression in the presence of the tested peptide by the gMFI of stained target cells without peptide added in each respective assay. Binding of KIR2DL3-Fc is represented as percent of KIR2DL3+ cells ± SD. […] A repeated-measures one-way ANOVA was subsequently performed to compare the responses between the wild-type group and the groups of the two variant peptides, for the KIR2DL3+ and KIR2DL3− NK cells, respectively. This was followed by a Tukey’s post hoc test. Each individual was sampled one time.

KIR2DL3 = target: T1, KIR2DL3 (Homo sapiens, UniProt P43628); test: KIR2DL3-Fc binding to peptide-pulsed 721.221-ICP47-C*03:04 cells (flow cytometry); conditions: for KIR2DL3-Fc Binding (Mean ± SD): ratio of percent KIR2DL3-Fc binding of variant peptide to that of wild-type peptide TGag303; for KIR2DL3-Fc binding, percent of cells binding KIR2DL3-Fc: cells pulsed with 100 μM peptide for 20 h, 2.5 μg KIR2DL3-Fc, 1 h on ice, mean ± SD of six independent experiments
T1 construct: purchased R&D Systems (KIR2DL3-Fc); Immudex (HLA-C*03:04/peptide monomers)
T1 sequence (P43628 with tags, fused parts or gaps limits assumed): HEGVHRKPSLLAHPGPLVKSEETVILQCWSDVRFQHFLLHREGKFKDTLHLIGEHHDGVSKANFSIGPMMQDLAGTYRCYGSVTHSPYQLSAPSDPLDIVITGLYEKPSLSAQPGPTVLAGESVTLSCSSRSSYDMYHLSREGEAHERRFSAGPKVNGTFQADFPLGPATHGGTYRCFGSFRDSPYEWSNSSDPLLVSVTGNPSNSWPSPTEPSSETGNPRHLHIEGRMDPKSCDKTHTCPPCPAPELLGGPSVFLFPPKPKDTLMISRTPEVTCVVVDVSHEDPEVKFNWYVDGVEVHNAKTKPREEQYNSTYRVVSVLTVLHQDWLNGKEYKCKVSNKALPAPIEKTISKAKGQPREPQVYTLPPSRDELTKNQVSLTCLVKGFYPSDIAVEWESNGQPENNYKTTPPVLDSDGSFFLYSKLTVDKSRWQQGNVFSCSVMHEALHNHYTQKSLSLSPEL

HLA-C*03:04 = HLA-C*03:04 (Homo sapiens, UniProt P10321, A176E/A330V/A97T/C25G/C350S/D114A/D33Y/E197K/L119I/L127V/L171W/L218V/M285V/M309V/M331V/P208H/Q277E/Q291P/R243W/R45H/S123Y/S140Y/S297R/S48A/T118I/T187L/T329A/T363A/V319A); test: HLA-C*03:04 stabilization assay on peptide-pulsed TAP-blocked 721.221-ICP47-C*03:04 cells (W6/32 staining, flow cytometry); assay type: cell-based; conditions: for HLA-C*03:04 stabilization, mean relative fluorescence intensity / HLA-C*03:04 stabilization, mean relative fluorescence intensity, titration: mean ± SD; for HLA-C*03:04 stabilization, mean relative fluorescence intensity: n = 3; for HLA-C*03:04 stabilization, mean relative fluorescence intensity (RFI): 100 μM peptide (saturating), 20 h at 26°C, gMFI with peptide divided by gMFI without peptide, mean ± SD of five experiments; for HLA-C*03:04 stabilization, mean relative fluorescence intensity, titration: serial peptide dilutions, non-saturating levels
[2] = test system: primary KIR2DL3− NK cells; test: Primary NK cell degranulation (CD107a) against peptide-pulsed 721.221-ICP47-C*03:04 cells, KIR2DL3− subset; assay type: cell-based, human; conditions: % CD107a+ NK cells divided by % with GKL control peptide; effector:target 1:5, 6 h at 26°C; mean ± SEM, nine donors
Description: as §1
Flow cytometry data were analyzed using FlowJo software version 10.0.6 (Tree Star), and statistical analysis was performed using GraphPad Prism 6 (GraphPad Software). HLA stabilization values are shown as mean relative fluorescence intensity; error bars represent standard deviation (SD). Relative fluorescence intensity was calculated by dividing the geometric mean fluorescence intensity (gMFI) of HLA expression in the presence of the tested peptide by the gMFI of stained target cells without peptide added in each respective assay. Binding of KIR2DL3-Fc is represented as percent of KIR2DL3+ cells ± SD. […]

[3] = target: biotinylated HLA-C*03:04 monomer refolded with … (human | not stated | HIV-1 clade C); test: SPR; Biacore 3000; […]) 10 μg/ml in PBS, 60 μl at 20 μl/min; HBS-EP; 25°C; […]
[4] = 0.1 μM peptide (non-saturating)

Sequence of recombinant human KIR2DL3-IgG-Fc chimera (P43628 22-245, change not shown): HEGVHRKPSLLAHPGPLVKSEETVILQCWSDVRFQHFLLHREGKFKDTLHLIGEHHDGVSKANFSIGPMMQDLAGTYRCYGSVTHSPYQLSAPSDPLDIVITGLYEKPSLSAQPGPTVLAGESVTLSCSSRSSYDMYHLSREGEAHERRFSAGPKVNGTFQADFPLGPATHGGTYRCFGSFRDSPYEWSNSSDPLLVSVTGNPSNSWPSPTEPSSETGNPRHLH

Substance | KIR2DL3+ NK Cell Activity (Mean ± SEM) [1] | KIR2DL3 binding (in words) (KIR2DL3; HLA-C*03:04 stabilized at similar levels, used as negative control) | KIR2DL3-Fc Binding (Mean ± SD) (KIR2DL3) | HLA-C*03:04 stabilization, mean relative fluorescence intensity (HLA-C*03:04; [4]) | HLA-C*03:04 stabilization, mean relative fluorescence intensity (HLA-C*03:04; 1 μM peptide (non-saturating)) | Relative degranulation of KIR2DL3+ NK cells (CD107a) [1] | KIR2DL3-Fc binding, percent of cells binding KIR2DL3-Fc (KIR2DL3) [%] | Relative degranulation of KIR2DL3− NK cells (CD107a) [2] | HLA-C*03:04 stabilization, mean relative fluorescence intensity (RFI) (HLA-C*03:04) | HLA-C*03:04 stabilization, mean relative fluorescence intensity, titration (HLA-C*03:04) | Kd [3]
GAVDPLLKL [GKL, reference compound] | 1.70 ± 0.3 | did not allow for KIR2DL3 binding | 0.06 ± 0.03 | – | – | – | – | – | – | – | –
RALGPAATL | – | – | – | 1.29 ± 0.19 | 2.72 ± 0.81 | – | – | – | – | – | –
RALGPGATL | – | – | – | 2.26 ± 0.39 | 4.24 ± 0.46 | – | – | – | – | – | –
YVDRFFKAL [TGag303A] | 1.36 ± 0.33 | – | 0.90 ± 0.17 | – | – | 0.89 ± 0.05 | 15.46 ± 7.24 | 1.06 ± 0.04 | 3.17 ± 0.53 | 1.84 ± 0.79 | –
YVDRFFKTL [TGag303] | – | – | – | – | – | 0.78 ± 0.07 | 18.01 ± 10.45 | 1.06 ± 0.04 | 3.24 ± 0.64 | 2.60 ± 1.45 | –
YVDRFFKVL [TGag303V] | 0.76 ± 0.08 | – | 2.74 ± 0.66 | – | – | 0.63 ± 0.07 | 44.67 ± 14.42 | 1.04 ± 0.05 | 3.40 ± 0.74 | 2.17 ± 1.36 | –
recombinant human KIR2DL3-IgG-Fc chimera (from UniProt P43628) (Fc fusion) | – | – | – | – | – | – | – | – | – | – | 93 nM and 77 nM
